{"source": "paper PMC6878970", "about": "“Understanding the physicochemical properties and degradation kinetics of nicotinamide riboside, a promising vitamin B3nutritional supplement” (Food & Nutrition Research, 2019)", "key": {"[1]": {"test": "Combinatorial DSC and 1H NMR (qNMR) thermal decomposition", "format": "physicochemical", "details": "quench-cooled", "method": "A Bruker® Ultrashield 400 MHz NMR was used for NMR spectroscopy. All samples were prepared using deuterated water. For ^1H NMR spectra acquisition, 256 scans were used. A relative quantitative NMR (qNMR) method was established and validated by comparing the integral values of NR chemical shift peaks to the integral values of the peaks of Nam. The integral of a peak is directly proportional to the number of nuclei the peak represents and the molar concentration of the compound in the sample ([14]). The percentage of NR was calculated using Equation 2 (modified from the literature), where INR H2 and INam H2 were the integral values of the singlet of NR H2 at 9.6 ppm and the singlet for Nam H2 at 8.6 ppm, respectively. N represents the number of nuclei (protons) that contribute to each peak. In this case, N = 1 for both NR H2 and Nam H2 peaks as they represent one proton each.\n% NR in smaple=(INR H2/NNR H2)/(INR H2/NNR H2)+(INam H2/NNam H2)×100 Equation 2\nDSC was used in conjunction with ^1H NMR spectroscopy to assess NR stability at certain temperatures and confirm compositional change throughout the entire thermal degradation process. […] This was then repeated in pans with no lids and these pans were then put in 1mL of D2O until all the contents were fully dissolved. The resulting D2O solutions were then subjected to ^1H NMR analysis, as previously detailed, to assess the stability of NRCl at each stage of its melting motif."}, "[2]": {"design": "method as in PMID 26791540", "details": "cited from earlier work"}, "[3]": {"test": "Degradation kinetics of NRCl in aqueous solutions (Arrhenius)", "format": "physicochemical", "details": "for activation energy Ea of degradation: 55, 65, 75°C, n = 5", "method": "NRCl degradation products and mechanism were determined and confirmed using ^1H NMR. NRCl degradation kinetics in aqueous solution was determined using three pH environments: pH 2.0, 5.0, and 7.4 (each with a constant ionic strength of 0.3M adjusted using NaCl), and three experimental temperature conditions, namely, 55°C, 65°C, and 75°C, respectively. In all cases, five replicates were used for pH–temperature combinations and each was an individual, sealed, and labelled glass vial with 20mL of the respective buffer. For each experiment, these vials were left overnight to equilibrate to the respective temperature environment in a temperature-controlled oven. At the start of each experiment, the vials were removed and a stock solution of NR was added. Aliquots were then extracted from each vial at this point for a t = 0 and the vials were placed back into the oven until the next time point. The sampling intervals were every 2, 1, and 0.5 h for 55°C, 65°C, and 75°C, respectively, and a total of five time points were used for each individual vial. When an aliquot was removed, it was dispensed into a 2mL micro tube and placed in ice to quench the reaction until preparation for HPLC analysis."}, "[4]": {"test_system": "mammalian cell lines", "design": "method as in PMID 18052316", "details": "cited from earlier work"}, "[5]": {"test": "NRCl stability in simulated gastrointestinal fluids", "format": "physicochemical", "method": "NRCl powder was tested under simulated GI conditions to assess the stability of the raw material in fluids relevant to the GI physiology. These experiments were carried out using a Copley™ dissolution bath equipped with the USP II paddle apparatus at a stirring rate of 75rpm and a temperature of 37°C± 0.1°C. Five dissolution media were tested (Table 2). 0.1N HCl, USP simulated gastric fluid without pepsin (USP SGFW/O pepsin), and USP simulated gastric fluid with pepsin (USP SGF) were used to simulate the stomach environment. Phosphate standard buffer (Int. Pharm. SIF) and simulated intestinal fluid pH 6.8 (USP SIF) were used to simulate the intestinal environment. A 24-h simulation was also performed using the USP prolonged release (USP PR) method whereby for the first 2 h of the experiment the NRCl was added to 750 mL 0.1N HCl. Subsequently, 250 mL of 0.2M trisodium phosphate was added and pH adjusted to pH 6.8 for the remaining 22 h. This step-change pH model simulates the pH change in traversing from the stomach to the intestine ([15])."}, "[6]": {"test": "Aqueous solubility determination", "format": "physicochemical", "details": "for solubility at 24 h: aqueous buffer, thermodynamic from solid", "method": "Three pH environments, namely pH 2.0, 5.0, and, 7.4, were used to determine the aqueous solubility of NR. Each buffer was added to a glass vial and stored at 4°C prior to the experiments. NRCl powder was then slowly added over a 24-h-periodunder constant mixing until the solution was clearly saturated (visual observation, n = 3). Aliquots were then drawn from each vial and passed through a 0.22 μm syringe filter unit (Millipore, Merck, USA). Samples were then analysed using the validated HPLC method."}, "[7]": {"test_system": "human blood NAD+", "design": "method as in PMID 27721479", "details": "after one single oral dose; cited from earlier work"}, "[8]": {"test": "Experimental determination of pKa by UV spectroscopy", "format": "physicochemical", "details": "NaOH solutions; first focused experiment, pH range 11.0–12.2", "method": "NR stock solution was added to nine respective buffer solutions ranging from pH 1.5 to 12.8 and analysed by UV spectroscopic scanning over 200–500 nm using a Cary 50 scan UV-visible spectrophotometer (Agilent Technologies, USA). […] Equation 1 is a modified Beers–Lambert and Henderson–Hasselbalch equation ([14]). This was used to calculate pKa. AI is the absorbance of the ionised species, AM is the absorbance of the molecular species, and A is the absorbance at any given pH. The same method as above was then repeated using the same parameters and equipment for a duplicate result.\npKa=pH+logAI−A/A−AM Equation 1"}, "[9]": {"test_system": "Sirtuin (SIRT)", "design": "method as in PMID 12297502, PMID 14522996, PMID 12899610", "details": "cited from earlier work"}}, "note": "Values joined by “and” are separate entries in the source; they are usually repeats but may differ in a detail not shown here. Identical values can stand only once."}
{"smiles": "NC(=O)c1ccc[n+]([C@@H]2O[C@H](CO)[C@@H](O)[C@H]2O)c1", "note": "[NR, Nicotinamide riboside]", "values": [{"measurement": "degradation (qNMR)", "setting": "[1]; solid heated to 115°C", "result": 2, "unit": "%"}, {"measurement": "degradation (qNMR)", "setting": "[1]; solid heated to 120°C", "result": 7, "unit": "%"}, {"measurement": "degradation (qNMR)", "setting": "[1]; solid heated to 125°C", "result": 55, "unit": "%"}, {"measurement": "share of the sample that was NR (qNMR)", "setting": "[1]; solid heated to 140°C", "result": 0.45, "unit": "%"}, {"measurement": "lowest adverse effect level", "setting": "[2]", "result": "1,000 mg/kg/day"}, {"measurement": "no-observed-adverse-effect level (NOAEL)", "setting": "[2]", "result": 300, "unit": "mg/kg/day"}, {"measurement": "pre-exponential factor A of degradation", "setting": "[3]; pH 2.0", "result": "4.8e+10", "unit": "min⁻¹"}, {"measurement": "activation energy Ea of degradation", "setting": "[3]; pH 2.0", "result": "75.4 (±2.9) kJ/mol and 75.4 kJ/mol"}, {"measurement": "pre-exponential factor A of degradation", "setting": "[3]; pH 5.0", "result": "3.2e+10", "unit": "min⁻¹"}, {"measurement": "activation energy Ea of degradation", "setting": "[3]; pH 5.0", "result": "76.9 (±1.1) kJ/mol and 76.9 kJ/mol"}, {"measurement": "pre-exponential factor A of degradation", "setting": "[3]; pH 7.4", "result": "1.8e+12", "unit": "min⁻¹"}, {"measurement": "activation energy Ea of degradation", "setting": "[3]; pH 7.4", "result": 82.8, "unit": "kJ/mol"}, {"measurement": "increase in the degradation rate for every 10°C temperature elevation", "setting": "[3]; same pH environment", "result": "approximate twofold increase"}, {"measurement": "increase of available NAD+", "setting": "[4]", "result": "up to twofold"}]}
{"smiles": "NC(=O)c1ccc[n+]([C@@H]2O[C@H](CO)[C@@H](O)[C@H]2O)c1", "note": "[NRCl, nicotinamide riboside chloride]", "values": [{"measurement": "degradation (qNMR)", "setting": "[1]; solid heated to 115°C", "result": "completely intact"}, {"measurement": "NRCl remaining", "setting": "[5]; 0.1N HCl pH 1.2, 37°C, 75rpm, after 2 h", "result": "97.64 ± 0.08", "unit": "%"}, {"measurement": "NRCl remaining", "setting": "[5]; 24-h GI simulation (USP PR, pH 1.2 then 6.8 after 2 h), after 8 h", "result": "90.51 ± 0.82", "unit": "%"}, {"measurement": "NRCl remaining", "setting": "[5]; Int. Pharm. SIF pH 6.8, 37°C, after 2 h", "result": "94.32 ± 1.16", "unit": "%"}, {"measurement": "NRCl remaining", "setting": "[5]; Int. Pharm. SIF pH 6.8, 37°C, after another 2 h (4 h)", "result": "92.71 ± 0.81", "unit": "%"}, {"measurement": "NRCl remaining", "setting": "[5]; USP SGF (with pepsin) pH 1.2, 37°C, 75rpm, after 2 h", "result": "97.17 ± 0.19", "unit": "%"}, {"measurement": "NRCl remaining", "setting": "[5]; USP SGF without pepsin pH 1.2, 37°C, 75rpm, after 2 h", "result": "98.59 ± 0.10", "unit": "%"}, {"measurement": "NRCl remaining", "setting": "[5]; USP SIF pH 6.8, 37°C, after 2 h", "result": "94.71 ± 2.66", "unit": "%"}, {"measurement": "NRCl remaining", "setting": "[5]; USP SIF pH 6.8, 37°C, after another 2 h (4 h)", "result": "93.54 ± 2.37", "unit": "%"}, {"measurement": "solubility class according to the USP definitions", "setting": "[6]; all three tested pH environments (2.0, 5.0, 7.4), freely soluble = 100–1,000 mg/mL", "result": "freely soluble"}, {"measurement": "solubility at 24 h", "setting": "[6]; pH 7.4, aqueous buffer", "result": "826 ± 34.4", "unit": "mg/mL"}, {"measurement": "solubility at 24 h", "setting": "[6]; pH 2.0", "result": "972.7 ± 8.1", "unit": "mg/mL"}, {"measurement": "solubility at 24 h", "setting": "[6]; pH 5.0", "result": "860 ± 31", "unit": "mg/mL"}, {"measurement": "increase in human blood NAD+", "setting": "[7]", "result": "more than twofold"}, {"measurement": "change of degradation rate on raising the pH value from 5.0 to 7.4", "setting": "[3]; at each respective temperature", "result": "doubled"}, {"measurement": "activation energy Ea of degradation", "setting": "[3]; pH 7.4", "result": "82.8 (±4.4) kJ/mol"}, {"measurement": "pKa", "setting": "[8]", "result": "11.5 ± 0.2"}]}
{"smiles": "NC(=O)c1cccnc1", "note": "[Nam, Nicotinamide]", "values": [{"measurement": "Sirtuin (SIRT) inhibition", "setting": "[9]", "result": "known Sirtuin (SIRT) inhibitor"}]}
